Laboratory results from patent publication US10758549B2, “Compositions of obeticholic acid and methods of use” (Intercept Pharmaceuticals, Inc., priority 2015, dated 2020).
In brackets after ≈: the same amount, converted by molar mass.

Columns and labels:
[1] = Equilibrium solubility of OCA in various buffers at 37° C.; format: physicochemical; settings: for solubility: aqueous buffer, 37 °C, thermodynamic from solid
Procedure: Solubility Studies of OCA in Various Buffers. A study was performed to screen different media of various pH over the pH range 1.2-10.0, incorporating the physiological pH range (1.2-6.8) for immediate release tablets.

[2] = Solubility of OCA in biologically relevant media at 37° C.; format: physicochemical; settings: for solubility: physiologically relevant dissolution media
Text: Solubility Studies of OCA in Biological Media.

[3] = tested on: CYP2B6, CYP2C8, CYP2D6, MRP2, MRP3, MRP4, MATE1, and OATP2B1; assay: In vitro studies: expression of metabolizing enzymes and transporters; format: in vitro ADME
[4] = Physiologic pharmacokinetic model of OCA (population PK fit and simulations); set-up: species or system human
Procedure: Plasma levels of OCA and its conjugates were measured in healthy subjects and cirrhotic patients with varying degrees of hepatic impairment. A physiologic pharmacokinetic model for OCA was developed to quantitatively describe the absorption, distribution, metabolism, and excretion of OCA in patients with and without hepatic impairment. The model was based on a published multi-compartment PK model for CDCA, and consisted of systemic, hepatobiliary, and intestinal systems. The model was used to simulate the pathophysiological abnormalities caused by cirrhosis including decreased hepatic uptake, portal-systemic shunting, decreased liver volume, and differences in amino acid conjugation.
This examples describes development of a physiologic PK model to quantitatively describe the absorption, distribution, metabolism, and excretion of OCA. In addition, the model was used to define the effects of hepatic impairment to predict the systemic and liver exposure to OCA in subjects with various degrees of liver impairment relative to healthy subjects with normal liver function. The model was developed based on 3 studies in healthy volunteers and 2 studies in patients with varying degrees of hepatic impairment […].
Data from was used to develop the model in healthy subjects (n=160) and then adjust for hepatic impairment (n=32) using the data from the above Examples. After development, the model was validated with data sourced from healthy subjects and cirrhotic patients.
The data used in model development included subject identifiers, time of dosing and sample collection, plasma drug concentrations (OCA, glyco-OCA, and tauro-OCA), dose amount, disease status (e.g., Child-Pugh score), and meal consumption information. Study participants received standardized meals at specified times during inpatient observation. Gallbladder contraction was assumed to last 90 minutes after the start of a meal. Drug concentrations below the limit of quantification (BLQ) were imputed to half of the lower limit of quantification (LLOQ). Observed and BLQ concentrations of OCA, glyco-OCA, and tauro-OCA associated with samples drawn prior to the first dose were excluded from the analyses.
A number of structural modifications were made to the base CDCA model in order to adapt it for use with OCA. For simplification, a single space was used to represent the gut (small and large intestines). Since OCA is an exogenous molecule, it was assumed that there was no endogenous synthesis and an absorption compartment with a first-order transfer coefficient (Ka) was included to represent the administration and absorption kinetics of an oral OCA dose. Based on steric hindrance by the 6-ethyl group of OCA, no bacterial 7-alpha dehydroxylation biotransformation activity (i.e., CDCA to lithocholic acid) was included in the model. Compartment volumes in the model were fixed to physiological values from the base CDCA model. The OCA model used the physiological flow values for blood, bile and gastrointestinal transit from the original physiologic PK model for CDCA, with the exception of flows from bile duct to gallbladder and from bile duct to gut. The physiological values from the base model led to poor predictions and may not be applicable due to the simplification of the enteral system into a unified gut compartment. The biotransformation and transport rates in the model, being dependent on chemical entity structure, were estimated by fitting the model to the plasma concentration time profiles of OCA, glyco-OCA, and tauro-OCA.
The PK model was first developed using the OCA, glyco-OCA, and tauro-OCA plasma concentration time profiles from healthy volunteers with normal hepatic function. Model parameter estimates related to healthy physiology were then held constant while the PK model was further developed using OCA, glyco-OCA, and tauro-OCA plasma concentration time profiles from patients with hepatic impairment (Child-Pugh scores A, B, and C). […]

[5] = exponent on t10, model estimate
[6] = normal hepatic function, model estimate

CC[C@H]1[C@@H](O)[C@@H]2[C@H](CC[C@]3(C)[C@@H]([C@H](C)CCC(=O)O)CC[C@@H]23)[C@@]2(C)CC[C@@H](O)C[C@@H]12 [OCA, 3α,7α-dihydroxy-6α-ethyl-5β-cholan-24-oic acid]
solubility ([1]; pH 4.1, aqueous buffer, pH 4.1 Acetate): 3 µg/mL (≈ 7.13 µM) | solubility ([1]; pH 5.1, aqueous buffer, pH 5.1 Acetate): 23 µg/mL (≈ 54.7 µM) | solubility ([1]; pH 6, aqueous buffer, pH 6.0 Phosphate): 50 µg/mL (≈ 119 µM) | solubility ([1]; pH 6.8, aqueous buffer, above pH 6.8): > 10 µg/mL | solubility ([1]; pH 6.8, aqueous buffer, pH 6.8 Phosphate (50 mM sodium phosphate dibasic)): 220 µg/mL (≈ 523 µM) | solubility ([1]; pH 7, aqueous buffer, pH 7.0 Phosphate): 462 µg/mL (≈ 1100 µM) | solubility ([1]; pH 8, aqueous buffer, pH 8.0 Phosphate): 486 µg/mL (≈ 1160 µM) | solubility ([1]; pH 9, aqueous buffer, pH 9.0 Alkaline Borate): 462 µg/mL (≈ 1100 µM) | solubility ([1]; pH 10, aqueous buffer, pH 10.0 Alkaline Borate): 56 µg/mL (≈ 133 µM) | USP Solubility Rating ([1]; pH 1.2 Hydrochloric acid): Practically | USP Solubility Rating ([1]; pH 2.0 Hydrochloric acid): Practically | USP Solubility Rating ([1]; pH 3.0 Acid Phthalate): Practically | USP Solubility Rating ([1]; pH 4.1 Acetate): Slightly soluble | USP Solubility Rating ([1]; pH 5.1 Acetate): Sparingly soluble | USP Solubility Rating ([1]; pH 6.0 Phosphate): Soluble | USP Solubility Rating ([1]; pH 6.8 Phosphate): Freely soluble | USP Solubility Rating ([1]; pH 7.0 Phosphate): Freely soluble | USP Solubility Rating ([1]; pH 8.0 Phosphate): Freely soluble | USP Solubility Rating ([1]; pH 9.0 Alkaline Borate): Freely soluble | USP Solubility Rating ([1]; pH 10.0 Alkaline Borate): Soluble | USP Solubility Rating ([2]; pH 1.2 (0.1N HCl)): Practically insoluble | Solubility (mg/mL) ([2]; pH 1.2 (0.1N HCl), 37° C.): <LOQ | USP Solubility Rating ([2]; pH 1.2 (FaSSGF)): Practically insoluble | Solubility (mg/mL) ([2]; pH 1.2 (FaSSGF), 37° C.): <LOQ | USP Solubility Rating ([2]; pH 4.5): Practically insoluble | Solubility (mg/mL) ([2]; pH 4.5, 37° C.): <LOQ | USP Solubility Rating ([2]; pH 5.0 (FeSSIF)): Freely soluble | increase in OCA solubility ([2]; pH 5.0 with taurocholate and lecithin (FeSSIF) vs. pH 5.1 acetate buffer alone): 35 fold | USP Solubility Rating ([2]; pH 6.5 (FaSSIF)): Freely soluble | USP Solubility Rating ([2]; pH 6.8): Freely soluble | USP Solubility Rating ([2]; pH 6.8 with surfactant): Freely soluble | solubility ([2]; aqueous buffer, pH 6.8 (proposed dissolution medium, sodium phosphate dibasic), 37° C.): 220 µg/mL (≈ 523 µM) | solubility ([2]; aqueous with cosolvent or surfactant or cyclodextrin, pH 6.8 with surfactant (polysorbate 80), 37° C.): 590 µg/mL (≈ 1400 µM) | solubility ([2]; pH 5.0 (FeSSIF), 37° C.): 820 µg/mL (≈ 1950 µM) | solubility ([2]; pH 6.5 (FaSSIF), 37° C.): 640 µg/mL (≈ 1520 µM) | change in expression of CYP2B6, CYP2C8, CYP2D6, MRP2, MRP3, MRP4, MATE1, and OATP2B1 [3]: did not cause a significant change | Effect in Mild hepatic impairment in hepatic uptake of OCA and conjugates [4, 5]: −0.132 | Effect in Moderate hepatic impairment in hepatic uptake of OCA and conjugates [4, 5]: −1.86 | Effect in Severe hepatic impairment in hepatic uptake of OCA and conjugates [4, 5]: −2.37 | Effect of Mild hepatic impairment on OCA tauro-conjugation ([4]; exponent, model estimate): 0.00481 | Effect of Moderate hepatic impairment on OCA tauro-conjugation ([4]; exponent, model estimate): 1.05 | Effect of Severe hepatic impairment on OCA tauro-conjugation ([4]; exponent, model estimate): 1.56 | Ka: OCA first order rate constant of oral absorption [4, 6]: 5.32 h⁻¹ | b16: OCA rate of conjugation with glycine [4, 6]: 1.44 h⁻¹ | b18: OCA rate of conjugation with taurine [4, 6]: 0.312 h⁻¹ | kout: Rate of fecal elimination of OCA [4, 6]: 0.612 L/h | t10: OCA transport rate from liver to sinusoidal space [4, 6]: 1698 h⁻¹ | t34: OCA rate of absorption from gut to portal space [4, 6]: 0.857 h⁻¹
